From ChEMBL document CHEMBL6134892, “Discovery and Evaluation of DA-302168S as an Efficacious Oral Small-Molecule Glucagon-Like Peptide-1 Receptor Agonist” (J Med Chem, 2025)
Values belong to the molecule of their own block, whether it stands above or below them.

Tests used:
[1] = target: Glucagon-like peptide 1 receptor (Homo sapiens, UniProt P43220); test: Agonist activity at human GLP-1R expressed in HEK293 cells coexpressing CRE LUC incubated for 5 hrs by luciferase based microplate reader analysis; format: functional, cell-based
[2] = Tmax in Sprague-Dawley rat at 10 mg/kg, po measured up to 24 hrs by LC-MS/MS analysis; format: ADME, organism-based; conditions: in vivo
[3] = target: T1, Cytochrome P450 2B6 (Homo sapiens, UniProt P20813); test: Inhibition of CYP2B6 in human liver microsomes incubated for 10 mins in presence of NADPH by LC-MS/MS analysis; format: ADME, Microsome
T1 sequence (P20813 whole entry): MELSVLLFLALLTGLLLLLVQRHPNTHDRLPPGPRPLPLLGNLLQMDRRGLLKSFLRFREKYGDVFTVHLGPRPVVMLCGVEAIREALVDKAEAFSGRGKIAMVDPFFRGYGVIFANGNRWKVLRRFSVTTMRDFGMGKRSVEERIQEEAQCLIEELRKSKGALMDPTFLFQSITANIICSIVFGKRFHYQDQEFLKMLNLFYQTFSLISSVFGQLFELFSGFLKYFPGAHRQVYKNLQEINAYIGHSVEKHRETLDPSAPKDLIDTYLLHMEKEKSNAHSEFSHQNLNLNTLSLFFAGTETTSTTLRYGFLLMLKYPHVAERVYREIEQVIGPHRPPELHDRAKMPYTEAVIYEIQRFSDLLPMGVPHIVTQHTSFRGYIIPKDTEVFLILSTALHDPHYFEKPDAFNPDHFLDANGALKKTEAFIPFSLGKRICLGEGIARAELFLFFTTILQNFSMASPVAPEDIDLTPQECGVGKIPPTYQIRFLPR

[4] = target: Cytochrome P450 3A4 (Homo sapiens, UniProt P08684); test: Inhibition of CYP3A4 in human liver microsomes using testosterone as substrate incubated for 5 mins in presence of NADPH by LC-MS/MS analysis; format: ADME, Microsome
[5] = Metabolic stability in human liver microsomes assessed as intrinsic clearance at 1 uM measured after 5 to 45 mins in presence of NADPH by LC-MS/MS analysis; format: ADME, Microsome; conditions: time 5-45 min, read-out: CLH
[6] = Metabolic stability in human liver microsomes assessed as half life at 1 uM measured after 5 to 45 mins in presence of NADPH by LC-MS/MS analysis; format: ADME, Microsome; conditions: time 5-45 min
[7] = target: Cytochrome P450 2C19 (Homo sapiens, UniProt P33261); test: Inhibition of CYP2C19 in human liver microsomes incubated for 45 mins in presence of NADPH by LC-MS/MS analysis; format: ADME, Microsome
[8] = AUC last in Sprague-Dawley rat at 10 mg/kg, po measured up to 24 hrs by LC-MS/MS analysis; format: ADME, organism-based; conditions: in vivo
[9] = Cmax in Sprague-Dawley rat at 10 mg/kg, po measured up to 24 hrs by LC-MS/MS analysis; format: ADME, organism-based; conditions: in vivo
[10] = target: Cytochrome P450 2C9 (Homo sapiens, UniProt P11712); test: Inhibition of CYP2C9 in human liver microsomes incubated for 10 mins in presence of NADPH by LC-MS/MS analysis; format: ADME, Microsome
[11] = target: Cytochrome P450 2D6 (Homo sapiens, UniProt P10635); test: Inhibition of CYP2D6 in human liver microsomes incubated for 20 mins in presence of NADPH by LC-MS/MS analysis; format: ADME, Microsome
[12] = target: T2, Cytochrome P450 1A2 (Homo sapiens, UniProt P05177); test: Inhibition of CYP1A2 in human liver microsomes incubated for 10 mins in presence of NADPH by LC-MS/MS analysis; format: ADME, Microsome
T2 sequence (P05177 whole entry): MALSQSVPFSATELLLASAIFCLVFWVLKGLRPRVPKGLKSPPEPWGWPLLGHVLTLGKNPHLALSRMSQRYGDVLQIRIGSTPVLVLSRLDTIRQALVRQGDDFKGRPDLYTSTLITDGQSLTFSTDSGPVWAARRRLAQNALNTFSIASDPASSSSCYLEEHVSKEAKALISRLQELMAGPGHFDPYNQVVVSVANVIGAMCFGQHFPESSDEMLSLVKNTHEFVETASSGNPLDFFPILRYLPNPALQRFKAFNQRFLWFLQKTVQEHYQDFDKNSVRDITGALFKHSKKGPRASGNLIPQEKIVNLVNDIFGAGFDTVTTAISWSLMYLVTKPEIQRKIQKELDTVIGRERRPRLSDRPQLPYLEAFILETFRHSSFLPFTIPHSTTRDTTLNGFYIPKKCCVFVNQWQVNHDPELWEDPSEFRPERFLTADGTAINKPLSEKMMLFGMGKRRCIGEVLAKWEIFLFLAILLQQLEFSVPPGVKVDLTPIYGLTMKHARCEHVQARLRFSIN

[13] = Metabolic stability in human liver microsomes assessed as hepatic clearance at 1 uM measured after 5 to 45 mins in presence of NADPH by LC-MS/MS analysis; format: ADME, Microsome; conditions: time 5-45 min
[14] = target: T3, Cytochrome P450 2C8 (Homo sapiens, UniProt P10632); test: Inhibition of CYP2C8 in human liver microsomes incubated for 20 mins in presence of NADPH by LC-MS/MS analysis; format: ADME, Microsome
T3 sequence (P10632 whole entry): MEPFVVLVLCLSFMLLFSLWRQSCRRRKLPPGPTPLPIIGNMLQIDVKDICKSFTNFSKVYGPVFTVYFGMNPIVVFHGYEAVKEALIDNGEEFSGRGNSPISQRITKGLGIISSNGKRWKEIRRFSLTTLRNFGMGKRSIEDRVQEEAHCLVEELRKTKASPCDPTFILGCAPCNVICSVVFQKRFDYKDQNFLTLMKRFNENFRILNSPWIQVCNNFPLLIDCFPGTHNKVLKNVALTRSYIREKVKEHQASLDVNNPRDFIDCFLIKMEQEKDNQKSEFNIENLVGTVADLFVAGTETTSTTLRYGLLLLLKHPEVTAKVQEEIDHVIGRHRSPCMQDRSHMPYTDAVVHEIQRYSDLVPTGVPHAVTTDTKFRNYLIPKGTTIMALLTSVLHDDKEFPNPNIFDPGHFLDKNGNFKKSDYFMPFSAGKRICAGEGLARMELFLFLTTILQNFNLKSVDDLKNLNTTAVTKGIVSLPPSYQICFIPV

Chain of Glucagon-like peptide 1 receptor (P43220 whole entry): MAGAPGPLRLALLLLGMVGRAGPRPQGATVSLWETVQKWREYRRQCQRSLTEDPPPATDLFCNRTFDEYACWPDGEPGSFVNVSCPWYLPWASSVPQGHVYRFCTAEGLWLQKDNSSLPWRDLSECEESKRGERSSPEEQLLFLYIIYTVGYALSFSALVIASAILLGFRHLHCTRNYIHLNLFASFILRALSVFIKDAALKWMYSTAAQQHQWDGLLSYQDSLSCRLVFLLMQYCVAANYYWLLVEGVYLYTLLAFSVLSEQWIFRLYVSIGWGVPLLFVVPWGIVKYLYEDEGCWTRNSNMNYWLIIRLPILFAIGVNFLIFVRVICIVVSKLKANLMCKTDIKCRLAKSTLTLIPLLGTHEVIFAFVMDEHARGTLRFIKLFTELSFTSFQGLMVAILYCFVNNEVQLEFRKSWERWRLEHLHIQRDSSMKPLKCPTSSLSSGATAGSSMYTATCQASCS
Chain of Cytochrome P450 3A4 (P08684 whole entry): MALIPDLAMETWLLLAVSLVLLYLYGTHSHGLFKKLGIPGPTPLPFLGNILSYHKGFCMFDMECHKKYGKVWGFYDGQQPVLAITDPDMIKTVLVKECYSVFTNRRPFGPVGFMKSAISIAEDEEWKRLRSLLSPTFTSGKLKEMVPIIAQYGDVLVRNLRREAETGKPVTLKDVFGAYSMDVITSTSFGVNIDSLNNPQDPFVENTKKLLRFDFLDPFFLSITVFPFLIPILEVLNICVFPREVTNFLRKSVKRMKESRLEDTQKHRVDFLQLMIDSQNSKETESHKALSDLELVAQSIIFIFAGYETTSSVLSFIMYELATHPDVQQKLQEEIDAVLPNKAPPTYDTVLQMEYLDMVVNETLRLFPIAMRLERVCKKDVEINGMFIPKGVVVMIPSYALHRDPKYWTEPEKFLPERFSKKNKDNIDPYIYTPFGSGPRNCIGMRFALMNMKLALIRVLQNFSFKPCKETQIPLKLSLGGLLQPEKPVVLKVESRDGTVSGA
Chain of Cytochrome P450 2D6 (P10635 whole entry): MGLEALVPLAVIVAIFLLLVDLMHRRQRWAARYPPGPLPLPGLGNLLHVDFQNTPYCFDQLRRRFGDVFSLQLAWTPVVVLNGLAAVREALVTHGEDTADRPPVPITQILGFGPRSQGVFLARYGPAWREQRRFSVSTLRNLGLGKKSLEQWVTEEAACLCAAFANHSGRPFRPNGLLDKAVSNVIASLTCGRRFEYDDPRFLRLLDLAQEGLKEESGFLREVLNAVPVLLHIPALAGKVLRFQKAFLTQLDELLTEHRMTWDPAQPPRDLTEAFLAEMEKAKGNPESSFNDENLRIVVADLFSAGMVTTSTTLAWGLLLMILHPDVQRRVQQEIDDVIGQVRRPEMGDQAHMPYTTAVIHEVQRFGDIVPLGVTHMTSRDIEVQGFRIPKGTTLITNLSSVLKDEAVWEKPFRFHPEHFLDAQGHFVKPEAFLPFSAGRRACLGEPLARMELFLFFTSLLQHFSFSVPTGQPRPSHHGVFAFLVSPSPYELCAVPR
Chain of Cytochrome P450 2C9 (P11712 whole entry): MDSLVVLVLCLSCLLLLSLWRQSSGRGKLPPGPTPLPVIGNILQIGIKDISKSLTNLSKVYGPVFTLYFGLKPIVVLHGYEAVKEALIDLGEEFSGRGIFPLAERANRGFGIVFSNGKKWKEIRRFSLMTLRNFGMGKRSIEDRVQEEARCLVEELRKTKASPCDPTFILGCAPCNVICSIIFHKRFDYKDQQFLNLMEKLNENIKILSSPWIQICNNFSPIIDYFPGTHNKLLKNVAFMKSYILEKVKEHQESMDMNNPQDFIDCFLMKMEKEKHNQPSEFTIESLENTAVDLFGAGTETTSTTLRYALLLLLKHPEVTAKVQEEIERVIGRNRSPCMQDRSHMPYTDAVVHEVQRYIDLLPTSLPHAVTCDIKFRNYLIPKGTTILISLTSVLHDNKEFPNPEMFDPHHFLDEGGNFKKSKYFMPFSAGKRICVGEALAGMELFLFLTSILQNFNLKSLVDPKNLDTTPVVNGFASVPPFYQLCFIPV
Chain of Cytochrome P450 2C19 (P33261 whole entry): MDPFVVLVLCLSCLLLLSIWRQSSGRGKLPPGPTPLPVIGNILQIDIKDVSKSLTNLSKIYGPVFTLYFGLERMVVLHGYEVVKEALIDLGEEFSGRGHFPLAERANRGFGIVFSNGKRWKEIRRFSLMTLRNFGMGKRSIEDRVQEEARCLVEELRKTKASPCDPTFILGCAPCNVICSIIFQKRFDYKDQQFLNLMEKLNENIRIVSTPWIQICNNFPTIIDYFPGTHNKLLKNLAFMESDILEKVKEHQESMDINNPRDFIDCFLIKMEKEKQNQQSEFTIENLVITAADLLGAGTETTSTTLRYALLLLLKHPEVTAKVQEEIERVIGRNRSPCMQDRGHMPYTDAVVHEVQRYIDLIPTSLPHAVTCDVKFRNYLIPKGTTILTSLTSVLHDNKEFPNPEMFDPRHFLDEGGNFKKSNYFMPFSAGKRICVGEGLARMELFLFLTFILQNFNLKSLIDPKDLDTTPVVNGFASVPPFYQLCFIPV

Structure (SMILES): N#Cc1ccc(COc2cccc(C3CCN(Cc4nc5ccc(C(=O)O)cc5n4C[C@@H]4CCO4)CC3)n2)c(F)c1 [DANUGLIPRON]
Tmax [2]: 37.8 min
IC50 [3]: > 30 µM
IC50 [4]: > 30 µM
CLint scaled at 1 µM [5]: 16 mL/min/kg
half-life at 1 µM [6]: 108 min
IC50 [7]: > 30 µM
AUC(0-t) at 24 h [8]: 714 ng·h/mL
Cmax [9]: 197 ng/mL
IC50 [10]: > 30 µM
IC50 [11]: > 30 µM
IC50 [12]: > 30 µM
CLhep predicted at 1 µM [13]: 9.04 mL/min/kg
IC50 [14]: 3.34 µM

Structure (SMILES): N#Cc1ccc(COc2cccc(N3CCC(Cc4nc5ccc(C(=O)O)cc5n4C[C@@H]4CCO4)CC3)n2)c(F)c1
EC50 [1]: 85.5 nM

Further lines, results first:

EC50 [1]: 7.55 nM
Structure (SMILES): Cc1cc2c(Cl)ccc(COc3cccc(-c4ccc(Cc5nc6ccc(C(=O)O)cc6n5C[C@@H]5CCO5)c(F)c4)n3)c2o1

EC50 [1]: 359 nM
Structure (SMILES): COCCn1c(Cc2ccc(-c3cccc(OCc4ccc(Cl)c5ccoc45)n3)cc2F)nc2ccc(C(=O)O)cc21

EC50 [1]: 198 nM
Structure (SMILES): Cn1ccc2ccc(COc3cccc(-c4ccc(Cc5nc6ccc(C(=O)O)cc6n5C[C@@H]5CCO5)c(F)c4)n3)cc21
